From patent US20220288091A1, “Method for Improving Insulin Sensitivity” (priority 2019, published 2022)

Experiments:
[1] = system: hypothalamic-pituitary-adrenal axis; assay: 24-hour urinary free cortisol (UFC); assay type: in vivo, human; conditions: 50 mg every 6 hours for 9 days; for Urinary Free Cortisol (24-hour UFC): mean±SD, n=16, normal 3.5-45
From the text: Urine cortisol and other surrogate biochemical markers of HPA activation: This includes all tests currently available or subsequently developed that may be used to evaluate the effects of GRA dose and schedule on the HPA axis. Normal 24-hour urine free cortisol (UFC) levels range from […] when measured in most tandem mass spectrometry assays. Values are higher when measured by immunoassays because of cross-reactivity with the antibodies used in those assays with other steroids that are structurally similar to cortisol. Measurement of UFC by tandem mass spectrometry is the preferred method to assess the effect of GRAs on the HPA axis for three reasons: 1. ease of collection, 2. specificity of the assay (it measures only cortisol) and 3. the well-established range of values seen in physiologic stress, or Pseudo-Cushing's syndrome, which is 1-3 times the upper limit of the normal reference range. However, other biochemical tests may be used as surrogate biochemical markers of the HPA axis, including, but not limited to measurement of serum or salivary cortisol at multiple time-points throughout a 24 hour period, including both the day and night, which is expressed as either the mean value or the area under the curve. Normal ranges for all cortisol assays and 24-hour assessments will vary depending on the assay technique, and reagents, and must be used based on locally-determined values, or values provided by the manufacturer of an assay kit. The results obtained from any of these assays are then used to determine whether the dosage of the one or more GR antagonists need to be adjusted upwards or downwards so as to maintain 24-hour serum or urinary free cortisol levels at no more than about two or three times the upper level of the normal range, respectively.
Initially, 19 subjects underwent randomization. […]
To reduce potential variability associated with estrogen in premenopausal women, testing was performed in the early follicular phase (days 1-7 of menstrual cycle). Baseline height and weight were measured after an overnight fast. […]

[2] = Body weight, blood pressure and serum lipids after 9-day administration; assay type: in vivo, human; conditions: 50 mg every 6 hours for 9 days; mean±SD, n=16
Experimental: To reduce potential variability associated with estrogen in premenopausal women, testing was performed in the early follicular phase (days 1-7 of menstrual cycle). Baseline height and weight were measured after an overnight fast. Subjects received an isocaloric regular diet during the inpatient part of the study, and those on metformin took the same dose throughout the study. Baseline testing took place took place over three inpatient days at the NIH Clinical Center, during which fasting blood was drawn, 24-hour urine was collected, 24-hour serial blood draws were obtained, and patients received both a […] (FSIVGTT) and a 75-g oral glucose tolerance test (OGTT). Subjects were then randomized to receive placebo or mifepristone for 9 days, of which the first 6 days the subjects returned home, and the final 3 days subjects underwent the same metabolic testing as during the baseline period. Subjects randomized to the mifepristone treatment arm were instructed to take one capsule (50 mg) every 6 hours (200 mg/day) over the course of 9 days. The placebo treatment arm received the same instructions to take one capsule every 6 hours over the course of the 9-day treatment period. Following the completion of the post-drug testing, subjects entered a 6-8 week washout period, after which they were crossed over to the other treatment arm, serving as their own controls for the study drug treatments.
Changes in body weight, BP and serum lipid concentrations for each study subject were evaluated at baseline and after 9-day administration of mifepristone or placebo, There were no significant differences observed in body weight or BMI between the treatment arms. BP was higher after mifepristone treatment for both systolic and diastolic values.

CC#C[C@]1(O)CC[C@H]2[C@@H]3CCC4=CC(=O)CCC4=C3[C@@H](c3ccc(N(C)C)cc3)C[C@@]21C [Mifepristone, 11beta-[p-(dimethylamino)phenyl]-17alpha-(1-propynl)estra-4,9-dien-17beta-ol-3-one]
Urinary Free Cortisol (24-hour UFC) [1]: 74.1 ± 75.3 μg/24 hr
Urinary Free Cortisol (24-hour UFC) ([1]; listed as mifepristone): 74.1±75.3 μg/24 hr
Post-treatment mean UFC in the 8 subjects above the normal limit ([1]; subgroup of 8 subjects): 120.4±83.9 μg/24 hr
Body-Mass Index [2]: 32.2 ± 3.9 kg/m^2
Diastolic Blood Pressure [2]: 77 ± 9.2 mmHg
HDL Cholesterol [2]: 41.3 ± 11.9 mg/dL
LDL Cholesterol [2]: 97.1 ± 34.6 mg/dL
Systolic Blood Pressure [2]: 130 ± 13 mmHg
Total Cholesterol [2]: 163.6 ± 419 mg/dL
Triglycerides [2]: 125.6 ± 65.6 mg/dL
